Key:
[1] = system: AGS cell line (human gastric cancer cells); assay: Cell-protecting effect in AGS cells (Helicobacter, sulindac, H2O2, ethanol; MTT); type: cell-based; conditions: most cell death models
Procedure: (§1) FIG. 3 is results showing cell-protecting effect of compound 2 on gastric mucous membrane damage induced by Helicobacter. Helicobacter (43504, 5×10^6 cfu/ml) was administered to cultured AGS (human gastric cancer) cell, alone or with sample having indicated concentration. MTT analysis method was used to evaluate the survival rate of gastric mucous membrane cell 24 hours after administration.
as §1, with “4” for “3”, “sulindac, a NSAID. 100 uM of sulindac” for “Helicobacter. Helicobacter (43504, 5×10^6 cfu/ml)”, “AGS” for “AGS (human gastric cancer)”, “16” for “24”
FIG. 5 is results showing cell-protecting effect of compound 2 on gastric mucous membrane damage induced by H2O2, oxidative stress. Cultured AGS cell was treated with 100 uM of H2O2 for 8 hours, alone or with sample having indicated concentration, and was washed with culture medium. MTT analysis method was used to evaluate the survival rate of gastric mucous membrane cell 24 hours later. […]
Cell-protecting effect of the 2-hydroxybenzoic acid derivative of the present invention was evaluated. […] After than, the absorbance was analyzed by ELISA reader at 540 nm, and the survival rate of gastric mucous membranes cell was calculated.

[2] = system: gastric bleeding induced by 60% EtOH/150 mM HCl; assay: Gastritis induced by alcohol and hydrochloric acid; type: in vivo, rat; conditions: oral
Procedure: FIG. 8 is results showing protecting effect of compound on gastrointestinal bleeding caused by alcohol/hydrochloric acid (EtOH/HCl). A is a picture of normal rat stomach. B is a picture of rat stomach, wherein gastrointestinal bleeding was caused by oral administration of 60% EtOH/150 mM HCl after 200˜250 g of rat was fasted for 24 hours. C is a picture of rat stomach, wherein rat was pre-treated with compound 230 minutes before administration of alcohol/HCl, and stomach was taken out 90 minutes after gastrointestinal bleeding. D is a graph quantifying damaged area to evaluate the degree of stomach injury.
Effect of the 2-hydroxybenzoic acid derivative on gastritis induced by alcohol and hydrochloric acid was evaluated. 200˜250 g of male SD rat was fasted for 24 hours, and 60% EtOH/150 mM HCl was orally administered to induce gastric bleeding (gastric injury). Compound 2 was orally administered according to indicated dose 30 minutes before the gastric bleeding, and stomach was taken out 90 minutes after gastric bleeding to evaluate the degree of gastric injury.

[3] = system: gastric bleeding caused by alcohol; assay: Alcoholic gastritis; type: in vivo, rat; conditions: pre-treated 1 hour before alcohol
Procedure: FIG. 9 is results showing protecting effect of compound 2 on alcoholic gastritis. A is a picture of normal rat stomach. B is a picture of rat stomach, wherein gastrointestinal bleeding was caused by oral administration of ethanol (4 ml/kg) after 250 g of rat was fasted for 24 hours. C is a picture of rat stomach, wherein rat was pre-treated with compound 21 hour before induction of gastrointestinal bleeding, and stomach was taken out 90 minutes after gastrointestinal bleeding. D is a graph quantifying the degree of stomach injury.
Effect of the 2-hydroxybenzoic acid derivative on alcoholic gastritis was evaluated. 250 g of rat was fasted for 24 hours, and alcohol was orally administered to cause gastric bleeding (B).

NSAID-induced gastritis = assay: Gastritis caused by NSAID (indomethacine); type: in vivo, rat; conditions: indomethacine 6 hour and 12 hour models; given 1 hour before NSAID
Procedure: FIG. 10 is results showing protecting effect of compound 2 on gastritis induced by NSAID. 250 g of rat was fasted for 24 hours, and indomethacin was orally administered to cause gastrointestinal bleeding (A and C). Compound 2 was administered 1 hour before administration of NSAID (B and D), and stomach was taken out 6 hours (A and B) or 12 hours (C and D) after gastrointestinal bleeding.
Effect of the 2-hydroxybenzoic acid derivative on NSAID-induced gastritis was evaluated.

[4] = system: thermal hyperalgesia induced by carrageenan; assay: Carrageenan-induced thermal hyperalgesia; type: in vivo, rat
Procedure: FIG. 11 is results showing efficacy of compound 2 through thermal hyperalgesia induced by carrageenan, one of arthritis animal models. 2% carrageenan was intradermally injected into hindpaw of rat to induce thermal hyperalgesia.
Analgesic effect of compound 2, one example of the 2-hydroxybenzoic acid derivative, was evaluated in arthritis model. 2% carrageenan was intradermally injected into left pes of rat, and 3-300 mg/kg of compound 2 was orally administered to evaluate effect of compound 2 on thermal hyperalgesia of arthritis model.

[5] = system: APP/PS1 transgenic mice behavior; assay: Elevated plus maze test in APP/PS1 mice; type: in vivo, mouse; conditions: 25 mg/kg/day for 7 months, vs chow only
Procedure: APP/PS1 transgenic mice were fed chow alone or containing 25 mg/kg/day of compound 2, for 7 months (3.5˜10.5 months). After administration of 7 months, Elevated plus maze test was performed to evaluate the behavior improvement. Elevated plus maze has two open arms (30 cm×6 cm×0.5 cm) and two closed arms (30 cm×6 cm×15 cm), and also has 6 cm×6 cm of center platform. In Elevated plus maze test, mouse was carefully laid in the center with the head of the mouse toward open arm. The time that the mouse spent in the open arm was recorded for 5 minutes (mean±SEM, n=3-5). *, Significant difference from control (APP/PS1 mouse fed with general chow only), p<0.05 using one-way ANOVA according to Student-Neuman-Keuls' test.

TNF-α and IL-1β mRNA = assay: Cytokine mRNA expression in G93A mouse (RT-PCR); type: in vivo; conditions: 5 mg/kg/day in chow, 16 week-old, lumbar segments
Procedure: FIG. 30 is results showing the levels of mRNA of inflammatory cytokines (TNF-α and IL-1β), markers of inflammation, in G93A mouse. RT-PCR (Reverse Transcription-Polymerase Chain Reaction) was used.
Lumbar segments of 16 week-old G93A mice fed with general chow only, and 16 week-old G93A mice fed with chow containing 5 mg/kg/day of compound 2 were extracted and their RNA were separated. The mRNA expression degrees of TNF-α and IL-1β, inflammatory cytokines, were evaluated through RT-PCT.

Q: What does the source list for O=C(O)c1cc(NCCc2ccc(C(F)(F)F)cc2)ccc1O [compound 2, 2-hydroxy-5-[2-(4-trifluoromethyl-phenyl)-ethylamino]-benzoic acid]?
A: cell-protecting effect ([1]; 1 uM and 10 uM): more than 50%; cell-protecting effect ([1]; 100 uM): more than 70%; toxicity in EtOH/HCl gastritis test [2]: did not show any toxicity; protection against gastric bleeding ([2]; 30 minutes before EtOH/HCl, stomach taken out 90 minutes after): protected stomach against gastric bleeding induction; gastric bleeding [3]: significantly reduced gastric bleeding; protecting effect on stomach (NSAID-induced gastritis): excellent protecting effect on stomach; thermal hyperalgesia, comparison with ibuprofen ([4]; 100 mg treatment): equivalent level of decreasing effect with 50 mg/kg of ibuprofen; reduction of thermal hyperalgesia ([4]; 300 mg/kg oral): over 90%; thermal hyperalgesia ([4]; 3-300 mg/kg oral): decreased thermal hyperalgesia in a dose-dependent manner; time spent in the open arm [5]: decreased the time for mouse to stay in the open arm; mRNA expression of TNF-α and IL-1β (TNF-α and IL-1β mRNA): effectively reduced inflammatory cytokines

Reference: US8598383B2, “Pharmaceutical composition for treating or preventing degenerative and inflammatory diseases” (Neurotech Pharmaceuticals Co., Ltd., priority 2006, dated 2013)
